pIC50: −log10 of the molar value. Values after ≈ are worked out from the molar mass of the structure shown.
Experiments:
[1] = biological target: T1, Phospho-N-acetylmuramoyl-pentapeptide-transferase (Aquifex aeolicus (strain VF5), UniProt O66465); assay: Inhibition of Aquifex aeolicus MraY using UDP-MurNAc-pentapeptide as substrate measured after 5 mins by UMP-Glo glycosyltransferase assay
T1 sequence (O66465 whole entry): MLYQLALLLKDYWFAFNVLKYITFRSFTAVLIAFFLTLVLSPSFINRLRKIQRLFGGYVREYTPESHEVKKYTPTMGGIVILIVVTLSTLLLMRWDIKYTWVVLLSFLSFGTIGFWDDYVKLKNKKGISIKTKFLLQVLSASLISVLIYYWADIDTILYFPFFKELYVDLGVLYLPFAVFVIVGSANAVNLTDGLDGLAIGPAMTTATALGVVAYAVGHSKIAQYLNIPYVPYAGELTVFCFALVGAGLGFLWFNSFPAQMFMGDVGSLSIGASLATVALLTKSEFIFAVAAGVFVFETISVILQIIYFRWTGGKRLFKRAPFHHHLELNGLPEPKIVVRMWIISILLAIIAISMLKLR

Staphylococcus aureus = assay: Antibacterial activity against Staphylococcus aureus SA113 assessed as growth inhibition; type: functional

pIC50 [1] | MIC (Staphylococcus aureus) [µg/mL] | SMILES
4.12 | 54 (≈ 60.4 µM) | CCCCCCCCCCCCCCCCC(=O)N[C@@H](CCCNC(=N)N)C(=O)NCCCN[C@H](C(=O)OC)[C@H](O[C@@H]1O[C@H](CN)[C@@H](O)[C@H]1O)[C@@H]1CC[C@H](n2ccc(=O)[nH]c2=O)C1
3.47 |  | CC(C)(C)OC(=O)[C@@H](NC(=O)OCc1ccccc1)[C@H](O[C@@H]1O[C@H](CN)[C@@H](O)[C@H]1O)[C@@H]1CC[C@H](n2ccc(=O)[nH]c2=O)C1
3.30 |  | NC[C@H]1O[C@@H](O[C@H]([C@@H]2CC[C@H](n3ccc(=O)[nH]c3=O)C2)[C@H](NC(=O)OCc2ccccc2)C(=O)O)[C@H](O)[C@@H]1O
